From ChEMBL document CHEMBL1201862, “PubChem BioAssay data set” (2004)
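These data come from cells grown in 96-well plates and exposed to compound for 48 hours at five concentrations. GI50: concentration for 50% inhibition of growth.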 The source made the active and inactive calls. Cut-off read from the data, not from the text of the source: active = GI50 up to about 1.1 µM and inactive = higher.

Columns and labels:
Experiment in all cases: DTP human tumour cell line panel, 48 h
[1] = tested on: BT-549
[2] = tested on: HCC 2998
[3] = tested on: HL-60
[4] = tested on: Hs-578T
[5] = tested on: KM12
[6] = tested on: MCF7
[7] = tested on: MDA-MB-231
[8] = tested on: NCI-H23
[9] = tested on: NCI/ADR-RES
[10] = tested on: OVCAR-3
[11] = tested on: PC-3
[12] = tested on: RPMI-8226
[13] = tested on: SF-295
[14] = tested on: T47D
[15] = tested on: UACC-62
[16] = tested on: SNB-75

Measured: GI50

COc1cc2c(cc1O)C1Cc3ccc(OC)c(O)c3C(C2)N1C (stereo unspecified)
inactive: [1] > 100 µM | [2] > 100 µM | [3] > 100 µM | [4] 42.8 µM | [5] > 100 µM | [6] > 100 µM | [7] 41.5 µM | [8] > 100 µM | [9] > 100 µM | [10] > 100 µM | [11] 90.8 µM | [12] > 100 µM | [13] > 100 µM | [14] > 100 µM | [15] > 100 µM

CC(=O)O[C@H]1[C@@H](OC2CCCC2(c2ccccc2)c2ccccc2)O[N+]([O-])=C[C@@H]1c1ccccc1 (stereo partly specified)
inactive: [1] 4.24 µM | [2] 10.4 µM | [3] 2.01 µM | [4] 6.53 µM | [5] 11.3 µM | [6] 3.48 µM | [7] 12.6 µM | [8] 11.9 µM | [9] 5.42 µM | [10] 8.87 µM | [11] 8.24 µM | [12] 2.01 µM | [13] 8.13 µM | [16] 5.55 µM | [14] 7.52 µM | [15] 4.66 µM

C=CCOc1ccc(C(=N/NC(=O)c2ccccc2)/N=N/c2ccc(C)cc2)cc1OC
inactive: [1] 18.3 µM | [2] 18.7 µM | [3] 4.83 µM | [4] 23.4 µM | [5] 18.1 µM | [6] 35.1 µM | [7] 24.4 µM | [8] 20.2 µM | [9] 35.7 µM | [10] 25.9 µM | [11] 25.7 µM | [13] 32 µM | [16] 20.2 µM | [14] 14.2 µM | [15] 14.3 µM

C#CCOC(=O)C(N)CS (stereo unspecified)
inactive: [1] > 100 µM | [3] > 100 µM | [4] > 100 µM | [5] > 100 µM | [6] > 100 µM | [7] > 100 µM | [8] > 100 µM | [9] > 100 µM | [10] > 100 µM | [11] > 100 µM | [12] > 100 µM | [13] > 100 µM | [16] > 100 µM | [14] > 100 µM | [15] > 100 µM

Cn1c(=S)c2nc(SCCCc3ccccc3)[nH]c2n(C)c1=O
inactive: [1] 45.1 µM | [3] 18.2 µM | [4] > 100 µM | [5] 19.5 µM | [6] 22.1 µM | [7] 42.5 µM | [8] 16.7 µM | [9] 22.3 µM | [10] 20.9 µM | [11] 36.8 µM | [12] 15.1 µM | [13] 11.4 µM | [16] 22.6 µM | [14] 14.6 µM | [15] 26.2 µM

CCOP(=O)(OCC)OC1c2[nH]ccc2-c2cc(C(=O)OC)[nH]c2C1OC (stereo unspecified)
inactive: [1] 36.5 µM | [2] > 100 µM | [3] 62.1 µM | [4] 44.2 µM | [5] 58.7 µM | [6] > 100 µM | [7] 31.6 µM | [8] > 100 µM | [9] > 100 µM | [10] > 100 µM | [11] 66.8 µM | [13] > 100 µM | [16] 89.3 µM | [14] 51.8 µM | [15] 45.8 µM

CC(=O)OC12CC[N+]3(C)CCCCC3C1=Nc1ccccc12 (stereo unspecified)
inactive: [1] > 100 µM | [3] > 100 µM | [4] > 100 µM | [5] 82.8 µM | [6] > 100 µM | [7] > 100 µM | [8] > 100 µM | [9] > 100 µM | [10] > 100 µM | [11] > 100 µM | [12] > 100 µM | [13] > 100 µM | [16] > 100 µM | [14] > 100 µM | [15] > 100 µM
